Measurements published in patent EP2030621A1, “Novel substituted pyrimidines as cysteine protease inhibitors” (GLAXO GROUP LIMITED, priority 2007, dated 2009).
Structures can show the parent of a compound that is named as a salt.

Tests used:
[1] = target: Falcipain-3 (Plasmodium falciparum, UniProt Q8IIL0); experiment: Falcipain-3 enzymatic assay (fluorogenic peptide substrate, quenched endpoint read); assay type: biochemical
Experimental: (§1) 1 Determination of Falcipain-2, Falcipain-3, Vivapain-2, Cathepsin K Cathepsin S, Cathepsin L, and Cathepsin B proteolytic catalytic activity
(§2) Assays for Falcipain-2, Faicipain-3, and Vivapain-2 are carried out with parasitic recombinant enzymes. Cathepsins K, S, L, and B are carried out with human recombinant enzymes. Standard assay conditions for the determination of kinetic constants used a fluorogenic peptide substrate, typically H-D-VLR-AFC (Falcipain-2, Falcipain-3, Vivapain-2), Z-FR-AFC (Cathepsin K, L, B), or KQKLR-AMC (Cathepsin S) and are determined in 100 mM sodium acetate, pH 5.5, containing 10 mM DTT and 0.5 mM CHAPS (Falcipain-2, Falcipain-3, Vivapain-2), and 100 mM sodium acetate, pH 5.5, containing 5 mM L-cysteine, 1mM CHAPS and 5mM EDTA (Cathepsin K, L, B), or 50mM MES, pH 6.5, containing 0.5mM CHAPS, 10mM L-CYS, 5mM EDTA (Cathepsin S). Stock substrate solutions are prepared at 20 mM in DMSO. The activity assays contained 30 uM substrate (Falcipain-2, Falcipain-3, Vivapain-2), 20 uM substrate (Cathepsin K), 25uM substrate (Cathepsin B), 5uM substrate (Cathepsin L), and 30uM substrate (Cathepsin S). All assays contained 1% DMSO. […] All assays are conducted at ambient temperature as end point assays being quenched after 60 minutes with the exception of Cathepsin S at 90 minutes, with 16.6 uM E-64 in 1% DMSO. Product formation (AFC or AMC) is determined from fluorescence (excitation at 405nm; emission at 530nm, AFC, or excitation at 360 nm; emission at 460 nm, AMC) monitored with a LJL Aquest (Molecular Devices) fluorescent plate reader. In the case of kinetic reads (used in mechanism of action studies), the reaction is not quenched but is read in the plate reader every 3 minutes for approximately 90 minutes. In addition, the mechanism of action studies for Falcipain-2 utilize Z-LR-AMC as the substrate. Product formation is determined from the fluorescence of AMC, measured with a LJL Acquest (Molecular Devices) fluorescent plate reader (excitation at 360nm; emission at 460nm).
(§3) Potential inhibitors are evaluated using the quenched read (endpoint) method. Assays are carried out in the presence of variable concentrations of test compound. Reactions are initiated by addition of enzyme and substrate to wells containing inhibitor stamped in 100% DMSO. For endpoint assays, the reaction is quenched with the addition of E64. Dose response data is fit to an IC50 curve with preset fitting tools according to equation 1: y = a + (b-a)/(1 + (10^x /10^c ())^d ) [formula] where y is the response at a particular inhibitor concentration x, a is the minimum response value, b is the maximum response value, c is the IC50, and d is the slope of the IC50 curve. […]. For a more direct measurement of the KI and the binding mechanism, we performed mechanism of action studies that included a titration of substrate and inhibitor with a kinetic read. […]

[2] = system: Plasmodium falciparum parasite; experiment: Whole cell assay: whole cell activity against the parasite; assay type: cell-based; details: Plasmodium falciparum
Source text: Compounds can be evaluated for whole cell actvity against the Plasmadium falciparum parasite according to the procedure described in Sijwali S. and Rosenthal P. J., (2004) Proceedings of the National Academy of Sciences of the United States of America (PNAS) 101(13), 4384-4389 (see in particular "Measurement of Parasite Growth rates and Inhibitor Sensitivity" on page 4385); IC50 values can be calculated as described in Singh A. and Rosenthal P. J., (2001) Antimicrobial Agents and Chemotherapy 45(3), 949-951 (see in particular page 950, first column); synchronised parasites can be prepared as described in Divo A. A. et al., (1985) Protozool. 32, 59-64. 3) In vitro models to evaluate activity against bone metastasis

[3] = target: Falcipain-2 (Plasmodium falciparum, UniProt Q8I6U4); experiment: Falcipain-2 enzymatic assay (fluorogenic peptide substrate, quenched endpoint read); assay type: biochemical
Chain of Falcipain-2 (Q8I6U4 244-484): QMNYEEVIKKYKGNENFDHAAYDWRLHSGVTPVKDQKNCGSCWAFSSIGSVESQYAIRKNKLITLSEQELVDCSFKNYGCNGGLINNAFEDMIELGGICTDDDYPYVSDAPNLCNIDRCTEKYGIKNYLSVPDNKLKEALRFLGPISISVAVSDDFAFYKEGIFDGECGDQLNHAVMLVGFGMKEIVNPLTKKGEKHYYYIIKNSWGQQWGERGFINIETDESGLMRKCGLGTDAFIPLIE
Experimental: as §1, §2, §3

Chain of Falcipain-3 (Q8IIL0 243-492): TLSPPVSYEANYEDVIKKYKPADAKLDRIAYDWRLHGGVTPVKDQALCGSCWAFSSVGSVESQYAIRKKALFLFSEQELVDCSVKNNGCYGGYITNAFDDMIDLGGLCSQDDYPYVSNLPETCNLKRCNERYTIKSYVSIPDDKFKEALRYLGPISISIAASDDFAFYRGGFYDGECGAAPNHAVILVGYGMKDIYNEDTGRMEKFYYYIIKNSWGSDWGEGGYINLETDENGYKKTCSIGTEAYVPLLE

For CN1CCN(Cc2ccc(C(=O)NN(c3nc(C#N)ncc3Br)C3CCCC3)cc2)CC1 [Example 1, N'-(5-bromo-2-cyano-4-pyrimidinyl)-N'-cyclopentyl-4-[(4-methyl-1-piperazinyl)methyl]benzohydrazide trifluoroacetate], the IC50 [1] was 0.015 to 0.15 µM and the IC50 [2] was 0.015 to 0.15 µM.

Molecule CN1CCN(Cc2ccc(C(=O)NN(c3nc(C#N)ncc3Br)C3CCOCC3)cc2)CC1 [Example 42, N'-(5-bromo-2-cyano-4-pyrimidinyl)-4-[(4-methyl-1-piperazinyl)methyl]-N'-(tetrahydro-2H-pyran-4-yl)benzohydrazide trifluoroacetate] has an IC50 [3] of 0.001 to 0.0025 µM and an IC50 [2] of 0.015 to 0.15 µM.

Work on CN1CCN(Cc2ccc(C(=O)NN(c3nc(C#N)ncc3Cl)C3CCCC3)cc2)CC1 [Example 50, N'-(5-chloro-2-cyano-4-pyrimidinyl)-N'-cyclopentyl-4-[(4-methyl-1-piperazinyl)methyl]benzohydrazide trifluoroacetate] yielded an IC50 [3] of 0.001 to 0.0025 µM and an IC50 [2] of 0.015 to 0.15 µM.

Molecule CC(=O)N1CCC(N(NC(=O)c2ccc(CN3CCC(N4CCN(C)CC4)CC3)cc2)c2nc(C#N)ncc2Br)CC1 [Example 38, N'-(1-acetyl-4-piperidinyl)-N'-(5-bromo-2-cyano-4-pyrimidinyl)-4-{[4-(4-methyl-1-piperazinyl)-1-piperidinyl]methyl}benzohydrazide trifluoroacetate] has an IC50 [1] of 0.015 to 0.15 µM and an IC50 [2] of 0.15 to 0.25 µM.

For CN1CCC(CN2CCN(Cc3cccc(C(=O)NN(c4nc(C#N)ncc4Br)C4CCCC4)c3)CC2)CC1 [Example 15, N'-(5-bromo-2-cyano-4-pyrimidinyl)-N'-cyclopentyl-3-({4-[(1-methyl-4-piperidinyl)methyl]-1-piperazinyl}methyl)benzohydrazide trifluoroacetate], the IC50 [1] was 0.015 to 0.15 µM and the IC50 [2] was 0.0025 to 0.015 µM.

CN1CCN(C(=O)C2CCN(Cc3ccc(C(=O)NN(c4nc(C#N)ncc4Cl)C4CCOCC4)cc3)CC2)CC1 [Example 36, N'-(5-Chloro-2-cyano-4-pyrimidinyl)-4-({4-[(4-methyl-1-piperazinyl)carbonyl]-1-piperidinyl}methyl)-N'-(tetrahydro-2H-pyran-4-yl)henzohydrazide trifluoroacetate] was tested, and the IC50 [3] was 0.001 to 0.0025 µM and the IC50 [2] was 0.015 to 0.15 µM.

Molecule CN1CCC(CN2CCN(Cc3cccc(C(=O)NN(c4nc(C#N)ncc4Br)C4CCCCC4)c3)CC2)CC1 [Example 28, N'-(5-bromo-2-cyano-4-pyrimidinyl)-N'-cyclohexyl-3-({4-[(1-methyl-4-piperidinyl)methyl]-1-piperazinyl}methyl)benzohydrazide trifluoroacetate] has an IC50 [2] of 0.0025 to 0.015 µM.

With CN1CCN(C(=O)C2CCN(Cc3cccc(C(=O)NN(c4nc(C#N)ncc4Br)C4CCCCC4)c3)CC2)CC1 [Example 23, N'-(5-bromo-2-cyano-4-pyrimidinyl)-N'-cyclohexyl-3-[{4-[(4-methyl-1-piperazinyl)carbonyl]-1-piperidinyl}methyl)benzohydrazide trifluoroacetate] the IC50 [2] was 0.0025 to 0.015 µM.

CN1CCCC(CN2CCN(Cc3ccc(C(=O)NN(c4nc(C#N)ncc4Br)C4CCCC4)cc3)CC2)C1 (stereo not drawn) [Example 8, N'-(5-bromo-2-cyano-4-pyrimidinyl)-N'-cyclopentyl-4-({4-[(1-methyl-3-piperidinyl)methyl]-1-piperazinyl}methyl)benzohydrazide trifluoroacetate] gave an IC50 [2] of 0.0025 to 0.015 µM.

Molecule CN1CCN(c2cccc(C(=O)NN(c3nc(C#N)ncc3Cl)C3CCCC3)n2)CC1 [Example 78, N'-(5-chloro-2-cyano-4-pyrimidinyl)-N'-cyclopentyl-6-(4-methyl-1-piperazinyl)-2-pyridinecarbohydrazide trifluoroacetate] has an IC50 [2] of 0.015 to 0.15 µM.

In the case of CC1CCC(N(NC(=O)c2ccc(CN3CCN(C)CC3)cc2)c2nc(C#N)ncc2Br)C1 (mixture of isomers) [Example 26, N'-(5-bromo-2-cyano-4-pyrimidinyl)-N'-(3-methylcyclopentyl)-4-[(4-methyl-1-piperazinyl)methyl]benzohydrazide trifluoroacetate], the IC50 [2] is reported as 0.015 to 0.15 µM.

CN(CCC(O)c1ccccc1)Cc1ccc(C(=O)NN(c2nc(C#N)ncc2Cl)C2CCCC2)cc1 (stereo not drawn) [Example 59, N'-(5-chloro-2-cyano-4-pyrimidinyl)-N'-cyclopentyl-4-{[(3-hydroxy-3-phenylpropyl)(methyl)amino]methyl}benzohydrazide trifluoroacetate] gave an IC50 [2] of 0.015 to 0.15 µM.

With CN(C)Cc1ccc(C(=O)NN(c2nc(C#N)ncc2Cl)C2CCCC2)cc1 [Example 54, N'-(5-chloro-2-cyano-4-pyrimidinyl)-N'-cyclopentyl-4-[(dimethylamino)methyl]benzohydrazide trifluoroacetate] the IC50 [2] was 0.015 to 0.15 µM.

For CC(=O)N1CCC(N(NC(=O)c2ccc(CN3CCC(C(=O)N4CCN(C)CC4)CC3)cc2)c2nc(C#N)ncc2Br)CC1 [Example 49, N'-(1-acetyl-4-piperidinyl)-N'-(5-bromo-2-cyano-4-pyrimidinyl)-4-({4-[(4-methyl-1-piperazinyl)carbonyl]-1-piperidinyl}methyl)benzohydrazide trifluoroacetate], the IC50 [2] was 0.015 to 0.15 µM.

CN1CCN(C(=O)C2CCN(Cc3cccc(C(=O)NN(c4nc(C#N)ncc4Br)C4CCCC4)c3)CC2)CC1 [Example 12, N'-(5-bromo-2-cyano-4-pyrimidinyl)-N'-cyclopentyl-3-({4-[(4-methyl-1-piperazinyl)carbonyl]-1-piperidinyl}methyl)benzohydrazide trifluoroacetate] was tested, and the IC50 [2] was 0.0025 to 0.015 µM.

Work on CN1CCN(C2CCN(Cc3ccc(C(=O)NN(c4nc(C#N)ncc4Br)C4CCOCC4)cc3)CC2)CC1 [Example 29, N'-(5-Bromo-2-cyano-4-pyrimidinyl)-4-{[4-(4-methyl-1-piperazinyl)-1-piperidinyl]methyl}-N'-(tetrahydro-2H-pyran-4-yl)benzohydrazide trifluoroacetate] yielded an IC50 [1] of 0.015 to 0.15 µM and an IC50 [2] of 0.015 to 0.15 µM.

CN1CCN(C2CCN(Cc3ccc(C(=O)NN(c4nc(C#N)ncc4Cl)C4CCOCC4)cc3)CC2)CC1 [Example 34, N'-(5-Chloro-2-cyano-4-pyrimidinyl)-4-{[4-(4-methyl-1-piperazinyl)-1-piperidinyl]methyl}-N'-(tetrahydro-2H-pyran-4-yl)benzohydrazide trifluoroacetate] showed an IC50 [2] of 0.0025 to 0.015 µM.

Work on CN1CCN(C2CCN(Cc3cccc(C(=O)NN(c4nc(C#N)ncc4Br)C4CCCC4)c3)CC2)CC1 [Example 11, N'-(5-bromo-2-cyano-4-pyrimidinyl)-N'-cyclopentyl-3-{[4-(4-methyl-1-piperazinyl)-1-piperidinyl]methyl}benzohydrazide trifluoroacetate] yielded an IC50 [2] of 0.0025 to 0.015 µM.

CC1CCC(N(NC(=O)c2ccc(CN3CCC(N4CCN(C)CC4)CC3)cc2)c2nc(C#N)ncc2Br)C1 (stereo not drawn) [Example 4, N'-(5-bromo-2-cyano-4-pyrimidinyl)-N'-(3-methylcyclopentyl)-4-{[4-(4-methyl-1-piperazinyl)-1-piperidinyl]methyl}benzohydrazide trifluoroacetate] gave an IC50 [2] of under 0.001 µM.

In the case of CN(CCc1ccccc1)Cc1ccc(C(=O)NN(c2nc(C#N)ncc2Cl)C2CCCC2)cc1 [Example 62, N'-(5-chloro-2-cyano-4-pyrimidinyl)-N'-cyclopentyl-4-{[methyl(2-phenylethyl)amino]methyl}benzohydrazide trifluoroacetate], the IC50 [2] is reported as 0.015 to 0.15 µM.
